From the supplement of paper PMC4862054

Key:
Test in all cases: normalised response (% of control), CellTox Green; higher = less cell death (100 = DMSO, 0 = benzethonium chloride kill control)
Settings in all cases: incubation time: 72 h
[1] = tested on: BT-474
Procedure, shortened: (§1)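 Breast cancer cell lines (20 µl suspension) were seeded into 384-well plates holding compound at 5 concentrations in 10-fold steps over a compound-specific 10,000-fold range, then incubated 72 h. CellTox Green fluorescence (485/520 nm) was read first, then CellTiter-Glo luminescence after 10 min at room temperature. Each plate was normalised to 0.1 % DMSO (100) and a positive kill control (0). Each value is the normalised signal at a single concentration of the series.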

[2] = tested on: BT-549
Procedure, shortened: as §1

[3] = tested on: CAL-120
Procedure, shortened: as §1

[4] = tested on: CAL-148
Procedure, shortened: as §1

[5] = tested on: CAL-51
Procedure, shortened: as §1

[6] = tested on: CAL-85-1
Procedure, shortened: as §1

[7] = tested on: DU-4475
Procedure, shortened: as §1

[8] = tested on: HDQ-P1
Procedure, shortened: as §1

[9] = tested on: MFM-223
Procedure, shortened: as §1

SMILES	normalised response [1] [%]	normalised response [2] [%]	normalised response [3] [%]	normalised response [4] [%]	normalised response [5] [%]	normalised response [6] [%]	normalised response [7] [%]	normalised response [8] [%]	normalised response [9] [%]
Nc1ccn([C@@H]2O[C@H](CO)[C@@H](O)C2(F)F)c(=O)n1 [Gemcitabine] (1000 nM)	104	88.8	96.3	61.1	55.1	73	96.9	108	104
CC(O)(CS(=O)(=O)c1ccc(F)cc1)C(=O)Nc1ccc(C#N)c(C(F)(F)F)c1 (configuration not stated) [Bicalutamide] (1000 nM)	104	116	97.6	87.8	112	94.6	103	104	97.5
Cc1cn(-c2cc(NC(=O)c3ccc(C)c(Nc4nccc(-c5cccnc5)n4)c3)cc(C(F)(F)F)c2)cn1 [Nilotinib] (10000 nM)	100	80.7	101	98.3	92.6	88.6	103	108	104
C/C(=C\c1csc(C)n1)[C@@H]1C[C@@H]2O[C@]2(C)CCC[C@H](C)[C@H](O)[C@@H](C)C(=O)C(C)(C)[C@@H](O)CC(=O)N1 [Ixabepilone] (100 nM)	100	65.6	105	102	35.9	95.9	103		98.8
Cc1cc(Nc2nc(N[C@@H](C)c3ncc(F)cn3)ncc2Cl)[nH]n1 [AZD1480] (100 nM)	71.6	95.4	98.6	99	107	99.9	97.6	97.1	100
C=CCn1c(=O)c2cnc(Nc3ccc(N4CCN(C)CC4)cc3)nc2n1-c1cccc(C(C)(C)O)n1 [MK1775] (10000 nM)	44.8	14.7	53.2	22.7	41.9	4.99	85.3	40.5	67.2
CC(=O)[C@]1(O)Cc2c(O)c3c(c(O)c2[C@@H](O[C@H]2C[C@H](N)[C@H](O)[C@H](C)O2)C1)C(=O)c1ccccc1C3=O [Idarubicin] (100 nM)	72.2	98.7	98.8	36	70.2	86.2	95.2		99.2
COc1cc(Nc2c(C#N)cnc3cc(OCCCN4CCN(C)CC4)c(OC)cc23)c(Cl)cc1Cl [Bosutinib] (1000 nM)	94.2	106	104	92.5	84.4	93.7	101	93.3	
CCNC(=O)CCC/C=C\C[C@@H]1[C@@H](/C=C/[C@@H](O)CCc2ccccc2)[C@H](O)C[C@@H]1O [Bimatoprost] (550 nM)	98.5	73.3	97.7	104	106	93.9	97.2	66.3	103
CNC(=O)c1ccccc1Sc1ccc2c(/C=C/c3ccccn3)n[nH]c2c1 [Axitinib] (1000 nM)	103	146	96.4	108	76	104	104	102	66.7
COc1ccc(S(=O)(=O)Nc2cccnc2Nc2ccc(O)cc2)cc1 [ABT-751] (1000 nM)	86.1	40.4	87.2		110	35.1	93.9	90.5	83.6
CC(C)(C)NC(=O)[C@H]1CC[C@H]2[C@@H]3CC[C@H]4NC(=O)C=C[C@]4(C)[C@H]3CC[C@]12C [Finasteride] (10000 nM)	100	98.9	106	103	100	91.2	102	102	
CC(C)C[C@H](NC(=O)[C@@H](COC(C)(C)C)NC(=O)[C@H](Cc1ccc(O)cc1)NC(=O)[C@H](CO)NC(=O)[C@H](Cc1c[nH]c2ccccc12)NC(=O)[C@H](Cc1cnc[nH]1)NC(=O)[C@@H]1CCC(=O)N1)C(=O)N[C@@H](CCCNC(=N)N)C(=O)N1CCC[C@H]1C(=O)NNC(N)=O [Goserelin] (10000 nM)	84.2	107	98	104	104	114	98.9	62.5	
CO[C@@]12[C@H](COC(N)=O)C3=C(C(=O)C(C)=C(N)C3=O)N1C[C@@H]1N[C@@H]12 [Mitomycin C] (10000 nM)	101	99.5	98.4	42.2	-36.9	102	94.7	71.8	
O=C(CCCCCCC(=O)Nc1ccccc1)NO [Vorinostat] (1000 nM)	96.8	115	95.1	100	96.6	95.5	94.5		97.3
